{"source": "patent US20090028820A1", "about": "“Antiviral Agent” (MITSUBISHI TANABE PHARMA CORPORATION, priority 2005, published 2009)", "key": {"[1]": {"tested_on": "Hepatitis C virus", "conditions": "cited from earlier work"}, "[2]": {"tested_on": "HCV-subgenomic replicon", "conditions": "Huh7 cells; cited from earlier work"}, "[3]": {"tested_on": "HCV-replicon", "assay": "Inhibition of HCV-replicon replication in HCV-replicon cells (quantitative PCR of replicon RNA)", "type": "cell-based, Hepatitis C virus", "conditions": "for inhibition of replication of the HCV-replicon: HGF alone, clone #5-15, 48 hours", "experimental": "As a cell system for in vitro replication of HCV, an HCV-replicon cell clone #5-15 derived from the human liver cancer cell strain Huh7 was used (purchased from ReBLikon GmbH). The clone #5-15 was suspended in the Dulbecco's Eagle's MEM medium containing 2% fetal bovine serum, and seeded on a 96-well plate at 1.5×10^4 cells/100 μl/well. As blank, wells added with the medium alone was prepared without seeding the cells (Day 0). After culture overnight in a humid incubator at 37° C. under 5% CO2 gas, 50 μl each of human recombinant IFNα (BIOMEDICAL LABORATORIES, Cat. No. 11105-1, lot No. #2122) and/or human recombinant HGF (produced in-house, Lot No. 920629) was added to each well. The final concentrations of IFNα were 0, 0.1 and 0.3 international unit (IU)/ml, the final concentrations of HGF were 0, 10 and 100 ng/ml, and the final volume was adjusted to 200 μl for all the wells. Three wells (triplicate) were prepared for each sample (Day 1). After culture for 48 hours, total RNA was extracted from each well by using ABI-PRIZM 6100 Nucleic Acid PrepStation (Applied Biosystems). Extraction was performed according to the operation manual of the apparatus. The solution of the extracted RNA was stored at −80° C. (Day 3). The samples were thawed on the next day, and amounts of the HCV-replicon RNA were quantified by quantitative polymerase chain reaction (PCR). The quantification was performed according to the method of Takeuchi et al. (Takeuchi, T. et al., Gastroenterology, Vol. 116, 636-642 (1999)) by using ABI PRISM 7900 (Applied Biosystems).\nRNAs used in the quantitative PCR for a standard curve were prepared by in vitro transcription using a vector obtained by ligating the gene of the HCV MKC-1A strain (Genbank accession No. D45172) to the downstream of the T7 promoter using T7 RiboMAX Express Large Scale RNA Production System (Promega), and it was confirmed that linearity was obtainable between 10^2 and 10^8 in the aforementioned quantitative PCR."}, "[4]": {"tested_on": "HCV-replicon cell clone #5-15 derived from Huh7", "assay": "Growth of HCV-replicon cell strain (Cell Titer 96 Aqueous One Solution Cell Proliferation Assay, absorbance 490 nm)", "type": "cell-based, human", "conditions": "HGF 0, 10, 100 ng/ml; IFNα 0, 0.1, 0.3 IU/ml; 48 hours", "experimental": "To determine whether or not the decreases in the replication of HCV-replicons observed in Example 1 were attributable to the decrease in the cell count itself, the following experiment was performed.\nThe clone #5-15 was suspended in Dulbecco's Eagle's MEM medium containing 2% fetal bovine serum, and seeded on a 96-well plate at 1.5×10^4 cells/100 μl/well. As blank, wells added with a medium alone was prepared without seeding cells (Day 0). After culture overnight in a humid incubator at 37° C. under 5% CO2 gas, 50 μl each of human recombinant IFNα (BIOMEDICAL LABORATORIES, Cat. No. 11105-1, lot No. #2122) and/or human recombinant HGF (produced in-house, Lot No. 920629) was added to each well. The final concentrations of IFNα were 0, 0.1 and 0.3 international unit (IU)/ml, the final concentrations of HGF were 0, 10 and 100 ng/ml, and the final volume was adjusted to 200 μl for all the wells. Three wells (triplicate) were prepared for each sample (Day 1). After culture for 48 hours, the number of cells was measured by Cell Titer 96 Aqueous One Solution Cell Proliferation Assay (Promega, Lot #171755), which is a type of cell growth assay kit. The measurement was performed according to the manual of the assay kit. […] Then, the plate was incubated for one hour in a humid incubator containing 5% CO2 set at 37° C., and then measured at absorbance 490 nm by using a 96-well plate reader."}}}
{"molecule": "COc1ccc2c(O[C@@H]3C[C@H]4C(=O)N[C@]5(C(=O)O)C[C@H]5/C=C\\CCCCC[C@H](NC(=O)OC5CCCC5)C(=O)N4C3)cc(-c3csc(NC(C)C)n3)nc2c1", "note": "[BILN-2061]", "values": [{"measurement": "improvement of viremia", "setting": "[1]; patients with hepatitis C", "result": "confirmed to improve viremia"}, {"measurement": "inhibition of replication of replicon RNA", "setting": "[2]", "result": "inhibits replication of replicon RNA"}]}
{"molecule": "NC(=O)c1ncn([C@@H]2O[C@H](CO)[C@@H](O)[C@H]2O)n1", "note": "[Ribavirin, ribavirin]", "values": [{"measurement": "efficacy against HCV", "setting": "[1]; agent alone", "result": "ineffective"}]}
{"molecule": "HGF: human recombinant HGF (produced in-house, Lot No. 920629); hepatocyte growth factor", "values": [{"measurement": "effect of HGF on IFN-dependent inhibition of virus replication", "setting": "[3]; HGF 10 ng/ml combined with IFN", "result": "synergistically enhanced"}, {"measurement": "inhibition of replication of the HCV-replicon", "setting": "[3]; 10 ng/ml", "result": "almost no inhibition of the replication was observed"}, {"measurement": "inhibition of replication of the HCV-replicon", "setting": "[3]; 100 ng/ml", "result": "inhibited the replication of the HCV-replicon"}, {"measurement": "effect of HGF on inhibition of HCV-replicon replication by IFN", "setting": "[3]; HGF combined with IFN 0.1 IU/ml", "result": "synergistically acted to inhibit the replication of HCV-replicons"}, {"measurement": "effect of HGF on inhibition of HCV-replicon replication by IFN", "setting": "[3]; HGF combined with IFN 0.3 IU/ml", "result": "effect of HGF was not observed"}, {"measurement": "inhibition of growth of the HCV-replicon cell line", "setting": "[4]", "result": "not observed to inhibit the growth"}]}
